Laboratory results: patent US10174067B2, “Type of cytidine derivative and application thereof” (priority 2014, dated 2019)
Marks after values point to notes of the source that are not given here.

What was measured:
[1] = tested on: HCT-116 colon cancer xenografts; assay: Tumor growth inhibition of HCT-116 colon cancer xenografts in tumor-bearing nude mice (tumor volume, TGI %, RTV, T/C %); format: in vivo, Balb/c Nude mice; details: G10-G16 groups, single IP 400 mg/kg
Outline: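 Nude mice inoculated with HCT-116 cells (about 3×10^7 cells/mL in serum-free medium). Tumor diameter measured three times weekly and volume computed as V=3/4π(D/2)^3. Activity expressed as TGI (%) and T/C (%) from relative tumor volume Vt/V0, with V0 taken at grouping and dosing start; P<0.05 significant.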

ICR mice = assay: in vivo; details: female ICR mice; single-dose ip
Outline: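 Female SPF ICR mice received a single ip dose in ethanol/Cremophor EL/saline (5:5:90), with dose lowered after deaths and raised otherwise. MTD defined as dose causing no death, no >10% weight loss versus Day 0 and no significant side effects; daily weights and twice-daily clinical observation over 7-14 days.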

[2] = Outline: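 Female SPF Balb/c nude mice bearing subcutaneous HCT-116 xenografts (3×10^6 cells, right hind limb), grouped at 60–150 mm^3, 6 per group; vehicle ethanol/Cremophor EL/saline 5:5:90. Body weight thrice weekly; tumours excised and weighed at sacrifice; Mean±SEM, unpaired t-test, P<0.05.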
[3] = Day 1, G10-G16 groups, single IP 400 mg/kg, Mean±SEM
[4] = Day 2, G10-G16 groups, single IP 400 mg/kg, Mean±SEM
[5] = Day 4, G10-G16 groups, single IP 400 mg/kg, Mean±SEM
[6] = Day 7, G10-G16 groups, single IP 400 mg/kg, Mean±SEM
[7] = Day 9, G10-G16 groups, single IP 400 mg/kg, Mean±SEM
[8] = Day 11, G10-G16 groups, single IP 400 mg/kg, Mean±SEM
[9] = Day 14, G10-G16 groups, single IP 400 mg/kg, Mean±SEM
[10] = Day 16, G10-G16 groups, single IP 400 mg/kg, Mean±SEM
[11] = Day 18, G10-G16 groups, single IP 400 mg/kg, Mean±SEM
[12] = Day 21, G10-G16 groups, single IP 400 mg/kg, Mean±SEM
[13] = Day 23, G10-G16 groups, single IP 400 mg/kg, Mean±SEM
[14] = Day 25, G10-G16 groups, single IP 400 mg/kg, Mean±SEM
[15] = Day 28, G10-G16 groups, single IP 400 mg/kg, Mean±SEM
[16] = Day 30, G10-G16 groups, single IP 400 mg/kg, Mean±SEM

CCCCOC(=O)Nc1nc(=O)n(C2OC(COC(=O)COc3nc(Cl)c(Cl)cc3Cl)C(O)C2(F)F)cc1-c1cn(Cc2ccccc2)nn1 (centres unmarked) [Compound G15]
Day 0 (RTV) ([1]; Day 0): 1.00 | Tumor volume, Day 0 ([1]; Day 0, Mean±SEM): 80.27 ± 13.25 mm^3 | Day 1 (TGI %) ([1]; Day 1): 35.29% | Day 1 (RTV) ([1]; Day 1, Mean±SEM): 1.44 ± 0.12 | Tumor volume, Day 1 ([1]; Day 1, Mean±SEM): 116.82 ± 21* mm^3 | Day 2 (TGI %) ([1]; Day 2): 44.25% | Day 2 (RTV) ([1]; Day 2, Mean±SEM): 1.50 ± 0.15 | Tumor volume, Day 2 ([1]; Day 2, Mean±SEM): 123.70 ± 25.72* mm^3 | Day 4 (TGI %) ([1]; Day 4): 67.87% | Day 4 (RTV) ([1]; Day 4, Mean±SEM): 1.11 ± 0.17 | Tumor volume, Day 4 ([1]; Day 4, Mean±SEM): 95.41 ± 22.57** mm^3 | Day 7 (TGI %) ([1]; Day 7): 86.92% | Day 7 (RTV) ([1]; Day 7, Mean±SEM): 0.88 ± 0.12 | Tumor volume, Day 7 ([1]; Day 7, Mean±SEM): 56.58 ± 8.87** mm^3 | Day 9 (TGI %) ([1]; Day 9): 91.92% | Day 9 (RTV) ([1]; Day 9, Mean±SEM): 0.77 ± 0.23 | Tumor volume, Day 9 ([1]; Day 9, Mean±SEM): 47.71 ± 0.00** mm^3 | Day 11 (TGI %) ([1]; Day 11): 92.19% | Day 11 (RTV) ([1]; Day 11, Mean±SEM): 1.19 ± 0.19 | Tumor volume, Day 11 ([1]; Day 11, Mean±SEM): 76.28 ± 10.83** mm^3 | Day 14 (TGI %) ([1]; Day 14): 86.10% | Day 14 (RTV) ([1]; Day 14, Mean±SEM): 3.15 ± 0.61 | Tumor volume, Day 14 ([1]; Day 14, Mean±SEM): 200.24 ± 20.65** mm^3 | Day 16 (TGI %) ([1]; Day 16): 77.07% | Day 16 (RTV) ([1]; Day 16, Mean±SEM): 6.58 ± 1.42 | Tumor volume, Day 16 ([1]; Day 16, Mean±SEM): 415.31 ± 33.61** mm^3 | Day 18 (TGI %) ([1]; Day 18): 71.73% | Day 18 (RTV) ([1]; Day 18, Mean±SEM): 8.97 ± 2.01 | Tumor volume, Day 18 ([1]; Day 18, Mean±SEM): 564.86 ± 41.27** mm^3 | Day 21 (TGI %) ([1]; Day 21): 60.58% | Day 21 (RTV) ([1]; Day 21, Mean±SEM): 15.35 ± 3.61 | Tumor volume, Day 21 ([1]; Day 21, Mean±SEM): 963.72 ± 58.94 mm^3 | Day 23 (TGI %) ([1]; Day 23): 59.19% | Day 23 (RTV) ([1]; Day 23, Mean±SEM): 15.35 ± 3.61 | Tumor volume, Day 23 ([1]; Day 23, Mean±SEM): 963.72 ± 58.94 mm^3 | Day 25 (TGI %) ([1]; Day 25): 57.93% | Day 25 (RTV) ([1]; Day 25, Mean±SEM): 17.32 ± 4.11 | Tumor volume, Day 25 ([1]; Day 25, Mean±SEM): 1086.50 ± 63.85 mm^3 | Day 28 (TGI %) ([1]; Day 28): 49.34% | Day 28 (RTV) ([1]; Day 28, Mean±SEM): 21.75 ± 5.25 | Tumor volume, Day 28 ([1]; Day 28, Mean±SEM): 1362.50 ± 74.25 mm^3 | Day 30 (TGI %) ([1]; Day 30): 37.03% | Day 30 (RTV) ([1]; Day 30, Mean±SEM): 28.66 ± 8.38 | Tumor volume, Day 30 ([1]; Day 30, Mean±SEM): 1767.15 ± 0.00 mm^3 | dose that could be tolerated (maximum tolerated dose, MTD) (ICR mice): 400 mg/kg | Weight change rate, Day 0 ([2]; Day 0, G10-G16 groups, single IP 400 mg/kg): 0.00% | Weight of mice, Day 0 ([2]; Day 0, G10-G16 groups, single IP 400 mg/kg, Mean±SEM): 20.15 ± 0.29 g | Weight change rate, Day 1 [2, 3]: −1.20 ± 1.02% | Weight of mice, Day 1 [2, 3]: 19.92 ± 0.44 g | Weight change rate, Day 2 [2, 4]: −11.24 ± 1.52 % | Weight of mice, Day 2 [2, 4]: 17.9 ± 0.52 g | Weight change rate, Day 4 [2, 5]: −18.30 ± 3.09 % | Weight of mice, Day 4 [2, 5]: 16.48 ± 0.77 g | Weight change rate, Day 7 [2, 6]: −1.96 ± 0.54% | Weight of mice, Day 7 [2, 6]: 20.10 ± 0.60 g | Weight change rate, Day 9 [2, 7]: 2.49 ± 2.01% | Weight of mice, Day 9 [2, 7]: 21.00 ± 0.10 g | Weight change rate, Day 11 [2, 8]: 4.46 ± 3.04% | Weight of mice, Day 11 [2, 8]: 21.40 ± 0.10 g | Weight change rate, Day 14 [2, 9]: 7.83 ± 1.17 % | Weight of mice, Day 14 [2, 9]: 22.1 ± 0.30 g | Weight change rate, Day 16 [2, 10]: 11.00 ± 1.00 % | Weight of mice, Day 16 [2, 10]: 22.75 ± 0.35 g | Weight change rate, Day 18 [2, 11]: 13.18 ± 0.32 % | Weight of mice, Day 18 [2, 11]: 23.20 ± 0.50 g | Weight change rate, Day 21 [2, 12]: 9.29 ± 0.71 % | Weight of mice, Day 21 [2, 12]: 22.40 ± 0.40 g | Day 22 Mortality ([2]; Day 22, single IP dose (mg/kg)): 67% | Weight change rate, Day 23 [2, 13]: 8.06 ± 0.44 % | Weight of mice, Day 23 [2, 13]: 22.15 ± 0.45 g | Weight change rate, Day 25 [2, 14]: 9.26 ± 0.26% | Weight of mice, Day 25 [2, 14]: 22.4 ± 0.60 g | Weight change rate, Day 28 [2, 15]: 7.08 ± 0.42% | Weight of mice, Day 28 [2, 15]: 21.95 ± 0.45 g | Weight change rate, Day 30 [2, 16]: 9.20 ± 2.70% | Weight of mice, Day 30 [2, 16]: 22.40 ± 1.10 g | clinical symptoms ([2]; after single IP dose, compared with model control group): no significant differences in clinical symptoms
